Columns and labels:
R5X4 strain (89.6) = test: HIV RT activity in MDM infected with R5X4 strain; type: cell-based; details: 8 days after infection
Procedure: (§1) Based upon their differential use of the major HIV co-receptors, HIV isolates have been referred to as R5, X4 or R5X4 strains, respectively (29). The M-tropic (macrophage-tropic) R5 prototype strains (Bal and ADA), dual tropic strain (89.6) and X4 primary isolate (UG024), were obtained from the NIH AIDS Reagent Program. Primary M-tropic isolates (BL-6 and CSF-6) were isolated from the blood and cerebrospinal fluid cells, respectively, of a subject with AIDS. […] The cells were also incubated with SP and/or anti-SP antibody. In this case, SP was incubated with (1:1000 dilution in 10% FCS DMEM) or without anti-SP antibody at room temperature for 10 min and then the mixture was added to the cell cultures for 2 h. When the cells were treated with the combination of CP-96,345 and SP, or CP-96,345, SP and anti-SP antibody, CP-96,345 was incubated with the cell culture for 10 min and then SP was added to the MDM or CP-96,345, SP and anti-SP (1:1000 in 10% FCS DMEM) were incubated for 10 min at room temperature and the mixture was incubated with the MDM for 2 h before infection with HIV. Untreated MDM served as controls. The cells were treated prior to, during, and throughout the infection. […]

[1] = test system: luciferase-encoding HIV virions pseudotyped with MLV Env (CCR5-independent); test: Pseudotype reporter virus entry assay, MLV Env; type: cell-based
Procedure: (§2) Pseudotype reporter virus entry assay: Recombinant luciferase-encoding HIV virions pseudotyped with Env from the M-tropic ADA (CCR5-dependent) and amphitropic murine leukemia virus (MLV) (CCR5-independent) were used to study HIV infection of MDM incubated with or without CP-96,345 or R-113281. The Env-deleted luciferase reporter plasmid PNL-Luc-E-R+ (kindly provided by N. Landau) was cotransfected into 293T cells along with plasmids encoding the ADA or MLV Env genes as previously described (31). Supernatants were collected 48 h later, assayed for p24^Gag antigen content, and frozen at −80° C. MDM (2.5×10^5 cells/well, in 48-well plates) were incubated overnight with or without CP-96,345 or R-113281 and then infected using 20 ng of p24^Gag antigen equivalent of each pseudotype HIV per well, in the presence of polybrene (7.5 μg/ml). At 72 h postinfection, the cells were lysed in 150 μl of 0.5% Triton-X-100 in PBS. Lysate (50 μl) was mixed with an equal volume of luciferase substrate (Promega, […].) and luciferase activity was determined in a microtiter plate luminometer (Dynex Technologies, Chantilly, Va.). The results were expressed as relative light units (RLU) in CP-96,345-treated or R-113281-treated and infected MDM as a percentage of that in untreated and infected MDM.

HIV LTR promoter = test: HIV LTR-driven CAT activity assay in U38 cells; type: cell-based
From the text: ACH-2 and U38 cell lines (25, 26) were obtained from the NIH AIDS Reagent Program. DNA extracted from ACH-2 cells was used as a positive standard for HIV DNA PCR as previously reported (27). The U38 cell line contains stably integrated, silent copies of the HIV LTR (long terminal repeat) promoter linked to a CAT (chloramphenicol acetyltransferase) gene and was used to study the effect of SP and/or CP-96,345 and R-113281 on the activation of HIV LTR promoter.
Chloramphenicol acetyltransferase (CAT) activity assay: U38 cells (2×10^6 cells) were incubated with different concentrations of SP and/or CP-96,345 or R-113281 for 48 h. Untreated U38 cells were used as a background control. Cellular proteins were extracted using 1X Reporter Lysis Bufffer (Promega Corp., Madison, Wis.). The lysates were incubated with a mixture containing 0.15 μCi of ^14C-labeled chloramphenicol (DuPont Inc., Boston, Mass.) and 200 μg/ml of n-Butyryl CoA (Promega Corp., Madison, Wis.) in a total volume of 125 μl at 37° C. for 3 h. The acetylated forms of chloramphenicol were extracted with xylene (Aldrich Chemical Company, Milwaukee, Wis.). CAT activity of each sample was quantified using a liquid-scintillation counter (Packard Instrument Company, Downers Grove, Ill.). The results were expressed as the ratio of CAT activity (CPM) of the SP and/or CP-96,345-treated or R-113281-treated U38 to that of the background control.

[2] = test system: luciferase-encoding HIV virions pseudotyped with ADA Env (CCR5-dependent); test: Pseudotype reporter virus entry assay, ADA Env; type: cell-based
Procedure: as §2

X4 strain (UG024) = test: HIV RT activity in MDM infected with X4 strain; type: cell-based; details: 8 days after infection
Procedure: as §1

TNF-α = test: LPS-stimulated TNF-α production in MDM by ELISA; type: cell-based, human; details: 10^−9 to 10^−7M; LPS 1 ng/ml; 24 h
Procedure: In order to determine the role of CP-96,345 in the regulation of cytokine secretion, 7-day-cultured MDM were incubated with or without CP-96,345 (10^−9 to 10^−7M) and/or LPS (1 ng/ml) for 24 h. The culture supernatants were collected to determine TNF-A and IL-6 levels by ELISA. The ELISA kits were purchased from Endogen, Inc. (Woburn, Mass.).

[3] = test system: CD4, CXCR4 and CD14 receptors; test: Flow cytometry of CD4, CXCR4 and CD14 receptor expression on MDM; type: cell-based, human; details: incubated overnight (24 h); direct immunofluorescence
Procedure: The cells were removed from the culture plate and then resuspended in 100 μl of phosphate-buffered saline (PBS). After incubation with 20 μl of either anti-CCR5-FITC or anti-CXCR4-FITC or anti-CD4-FITC or anti-CD14-FITC for 45 min at 4° C., the cells were washed twice with PBS and fixed with 1% paraformaldehyde in PBS. Fluorescein-conjugated control antibodies were isotype-matched IgG. Fluorescence was analyzed on an EPICS-Elite flow cytometer (Beckman-Coulter Electronics, Hialeah, Fla.).

[4] = CP-96,345 10^−8 and 10^−7 M overnight pretreatment
[5] = R-113281 10^−7 and 10^−6 overnight pretreatment

Compound	replication of R5X4 strain 89.6 (HIV RT activity) (R5X4 strain (89.6); CP-96,345 10^−7M)	MLV Env-pseudotyped HIV infection of MDM (luciferase activity) [1, 4]	effect on SP activation of HIV LTR-driven CAT activity (HIV LTR promoter; SP 10^−8M plus CP-96,345 10^−6M, 48 h)	ADA Env-pseudotyped HIV infection of MDM (luciferase activity) [2, 4]	replication of X4 strain UG024 (HIV RT activity) (X4 strain (UG024); CP-96,345 10^−7M)	LPS-stimulated TNF-A production in MDM (TNF-α)	CD4, CXCR4 and CD14 receptor expression on MDM [3]	replication of R5X4 strain (HIV RT activity) (R5X4 strain (89.6); R-113281 10^−6 M)	MLV-Env pseudotyped HIV infection of MDM (luciferase activity) [1, 5]	effect on SP activation of HIV LTR-driven CAT activity (HIV LTR promoter; SP (10^−8M) plus R-113281 (10^−6M), 48 hours)	ADA Env-pseudotyped HIV infection of MDM (luciferase activity) [2, 5]	replication of X4 strain (HIV RT activity) (X4 strain (UG024); R-113281 10^−6 M)
COc1ccccc1CN[C@H]1C2CCN(CC2)[C@H]1C(c1ccccc1)c1ccccc1 [CP-96,345, [2S,3S)-cis-2-(diphenylmethyl)-N-[(2-methoxyphenyl)-methyl]-1-azabicyclo [[2.2.2]-octan-3-amine]]	inhibited to a lesser extent	failed to block	abrogated	inhibited	not affected	attenuated	only CCR5 expression was down-regulated	–	–	–	–	–
COc1cc(C(=O)N2CCO[C@](CCN3CCC4(CC3)c3ccccc3C[S@+]4[O-])(c3ccc(Cl)c(Cl)c3)C2)cc(OC)c1OC.Cl [R-113281]	–	–	–	–	–	–	–	inhibited to a lesser extent	failed to block	abrogated	inhibited	not affected

From US6676950B2, “Neurokinin receptor antagonists and methods of use thereof for inhibiting HIV infection” (The Children's Hospital of Philadelphia, priority 2001, dated 2004)
